Measured values: PMC11406361, “Several orphan solute carriers functionally identified as organic cation transporters: Substrates specificity compared with known cation transporters” (The Journal of Biological Chemistry, 2024)

Tests used:
[1] = biological target: T1, SLC35F4 (Homo sapiens, UniProt A4IF30)
T1 sequence (A4IF30 1-521): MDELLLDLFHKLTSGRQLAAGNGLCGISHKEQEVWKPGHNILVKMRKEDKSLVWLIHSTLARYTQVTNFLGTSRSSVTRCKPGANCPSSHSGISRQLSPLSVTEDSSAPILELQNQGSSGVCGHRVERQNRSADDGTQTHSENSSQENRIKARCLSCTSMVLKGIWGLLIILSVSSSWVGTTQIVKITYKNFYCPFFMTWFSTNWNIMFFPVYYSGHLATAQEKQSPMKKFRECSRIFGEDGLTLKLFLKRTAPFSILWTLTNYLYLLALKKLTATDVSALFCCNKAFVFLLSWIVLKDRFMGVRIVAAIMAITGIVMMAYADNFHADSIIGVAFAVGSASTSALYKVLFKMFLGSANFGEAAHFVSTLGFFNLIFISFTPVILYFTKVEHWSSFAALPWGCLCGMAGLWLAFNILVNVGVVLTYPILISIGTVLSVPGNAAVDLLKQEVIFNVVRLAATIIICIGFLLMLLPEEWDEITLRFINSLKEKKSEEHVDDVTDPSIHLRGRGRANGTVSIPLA

[2] = biological target: T2, SLC35F5 (Homo sapiens, UniProt Q8WV83); test: Uptake ratio screen, SLC35F5-overexpressing HEK293 over empty vector cells; assay type: cell-based; design: by amplifying the entire gene-of-interest within the HEK293 genome via a long-range PCR; details: 2.5 μM, 2 min
T2 sequence (Q8WV83 1-523): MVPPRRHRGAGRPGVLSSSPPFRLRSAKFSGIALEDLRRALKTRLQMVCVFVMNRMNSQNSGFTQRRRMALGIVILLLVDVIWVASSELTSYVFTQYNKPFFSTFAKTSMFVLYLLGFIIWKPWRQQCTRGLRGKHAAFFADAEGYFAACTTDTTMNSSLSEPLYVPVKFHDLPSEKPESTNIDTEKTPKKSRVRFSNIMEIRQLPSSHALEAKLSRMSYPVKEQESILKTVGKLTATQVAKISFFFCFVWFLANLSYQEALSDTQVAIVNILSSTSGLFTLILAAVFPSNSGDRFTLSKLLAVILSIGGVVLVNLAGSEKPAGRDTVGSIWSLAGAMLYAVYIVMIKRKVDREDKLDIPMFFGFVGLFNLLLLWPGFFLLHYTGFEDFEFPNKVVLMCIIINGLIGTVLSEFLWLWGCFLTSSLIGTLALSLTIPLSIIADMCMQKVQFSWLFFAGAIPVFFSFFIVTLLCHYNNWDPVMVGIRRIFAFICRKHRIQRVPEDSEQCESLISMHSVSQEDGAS
Experimental: (§1) Typically discussed substrates of the proton organic-cation antiporter ([14]) are highlighted in dark green in Figure 1.
(§2) In preparation for transport experiments, 24-well plates were pre-coated with poly-D-lysine (Sigma-Aldrich) and 300,000 cells were plated per well and incubated for 48 h. Firstly, the 24-well plate was placed on a heating plate at 37 °C, and the cells were washed with 37 °C HBSS^+ buffer (Hank’s balanced salt solution supplemented with 10 mM Hepes and adjusted to pH 7.4; Thermo Fisher Scientific). The substance-of-interest, which was diluted in 37 °C HBSS^+ to a desired concentration, was added to the cells for exactly 2 min. […] The uptake was stopped with ice-cold HBSS^+, and the 24-well plate was removed from the heating plate. The cells were washed twice with the cold HBSS^+ before they were lysed for 15 min with 80% (v/v) acetonitrile containing the respective internal standard for mass spectrometry. For variations in seeded cell numbers between the cell lines, several wells were lysed in RIPA buffer and used for total protein quantification using a bicinchoninic assay ([74]) and bovine serum albumin as calibration.
(§3) The intracellular drug concentrations after transport experiments were analyzed by high-performance liquid chromatography coupled to tandem mass spectrometry analysis. The HPLC consisted of a Shimadzu Nexera HPLC System with a SIL-30AC autosampler, a LC-30AD pump, a CTO-20AC column oven, and a CBM-20A controller (Shimadzu). The reverse-phase chromatography of compounds was accomplished with a Brownlee SPP RP-Amide column with 4.6 × 100 mm inner dimensions, a particle size of 2.7 μm, and a preceding Phenomenex C-18 guard column. The mobile phase was composed of an organic additive with acetonitrile:methanol 6:1 (v/v) in total concentrations between 3% and 50% (v/v) and 0.1% (v/v) formic acid in the aqueous component of the eluent. During separation, the column oven was held at 40 °C and the mobile phase was maintained at a flow rate of 300 or 400 μl/min. After separation, the detection of substances was performed with an API 4000 tandem mass spectrometer (AB SCIEX, https://sciex.com/support/software-support/software-downloads), followed by quantification of results with the Analyst software (AB SCIEX, version 1.6.2). The composition of chromatographic conditions, as well as detailed mass spectrometric detection parameters, are listed in Table S5.
(§4) Transport-mediated net uptake was determined as fold-increase of transporter-overexpressing cells over empty vector–transfected control cells.

[3] = biological target: T3, SLC35E4 (Homo sapiens, UniProt Q6ICL7)
T3 sequence (Q6ICL7 1-350): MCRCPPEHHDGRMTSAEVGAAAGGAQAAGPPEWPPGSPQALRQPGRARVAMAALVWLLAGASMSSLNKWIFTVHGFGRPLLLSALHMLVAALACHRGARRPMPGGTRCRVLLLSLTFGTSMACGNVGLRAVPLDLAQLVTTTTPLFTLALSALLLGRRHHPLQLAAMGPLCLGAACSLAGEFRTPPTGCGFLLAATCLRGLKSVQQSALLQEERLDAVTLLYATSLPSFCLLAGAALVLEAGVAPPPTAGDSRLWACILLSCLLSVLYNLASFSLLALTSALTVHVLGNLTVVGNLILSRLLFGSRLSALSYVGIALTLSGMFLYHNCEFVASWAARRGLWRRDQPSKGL

[4] = biological target: T4, SLC35E1 (Homo sapiens, UniProt Q96K37); details: 2.5 μM, 2 min, HEK293
Experimental: as §1, §2, §3, §4

[5] = biological target: SLC35G4 (Homo sapiens, UniProt P0C7Q5); details: 2.5 μM, 2 min, HEK293
Experimental: as §1, §2, §3, §4

[6] = biological target: SLC44A1 (Homo sapiens, UniProt Q8WWI5); details: 2.5 μM, 2 min, HEK293
Experimental: as §1, §2, §3, §4

[7] = biological target: SLC44A2 (Homo sapiens, UniProt Q8IWA5); details: 2.5 μM, 2 min, HEK293
Experimental: as §1, §2, §3, §4

[8] = biological target: T4, SLC35E1

T4 sequence (Q96K37 whole entry): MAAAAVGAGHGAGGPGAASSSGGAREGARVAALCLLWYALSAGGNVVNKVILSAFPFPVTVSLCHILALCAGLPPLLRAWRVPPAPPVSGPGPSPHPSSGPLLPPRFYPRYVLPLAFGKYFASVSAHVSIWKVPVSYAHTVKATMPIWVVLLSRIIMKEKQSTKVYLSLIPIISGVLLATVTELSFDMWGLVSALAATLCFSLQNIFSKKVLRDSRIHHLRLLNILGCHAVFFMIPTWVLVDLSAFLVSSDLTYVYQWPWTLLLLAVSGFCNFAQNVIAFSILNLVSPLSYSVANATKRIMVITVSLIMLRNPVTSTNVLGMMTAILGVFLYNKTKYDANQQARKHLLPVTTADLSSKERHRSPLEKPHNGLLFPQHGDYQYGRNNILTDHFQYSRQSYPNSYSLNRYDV
Chain of SLC44A1 (Q8WWI5 whole entry): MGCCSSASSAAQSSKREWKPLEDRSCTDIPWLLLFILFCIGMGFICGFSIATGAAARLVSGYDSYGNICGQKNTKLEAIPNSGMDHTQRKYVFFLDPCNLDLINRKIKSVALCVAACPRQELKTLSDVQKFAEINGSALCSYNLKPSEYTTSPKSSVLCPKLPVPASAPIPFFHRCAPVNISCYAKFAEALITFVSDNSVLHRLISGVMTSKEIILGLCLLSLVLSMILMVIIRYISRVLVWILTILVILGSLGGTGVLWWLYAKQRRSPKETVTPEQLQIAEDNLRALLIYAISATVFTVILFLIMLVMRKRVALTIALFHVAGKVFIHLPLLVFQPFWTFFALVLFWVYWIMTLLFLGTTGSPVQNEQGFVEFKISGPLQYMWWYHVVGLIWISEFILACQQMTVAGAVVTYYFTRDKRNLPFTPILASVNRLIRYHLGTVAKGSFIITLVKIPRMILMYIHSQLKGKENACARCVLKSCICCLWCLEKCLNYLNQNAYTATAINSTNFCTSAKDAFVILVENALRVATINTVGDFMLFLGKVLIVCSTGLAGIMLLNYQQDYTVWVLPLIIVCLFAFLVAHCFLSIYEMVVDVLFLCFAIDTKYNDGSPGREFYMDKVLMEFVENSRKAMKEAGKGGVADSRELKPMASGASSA
Chain of SLC44A2 (Q8IWA5 whole entry): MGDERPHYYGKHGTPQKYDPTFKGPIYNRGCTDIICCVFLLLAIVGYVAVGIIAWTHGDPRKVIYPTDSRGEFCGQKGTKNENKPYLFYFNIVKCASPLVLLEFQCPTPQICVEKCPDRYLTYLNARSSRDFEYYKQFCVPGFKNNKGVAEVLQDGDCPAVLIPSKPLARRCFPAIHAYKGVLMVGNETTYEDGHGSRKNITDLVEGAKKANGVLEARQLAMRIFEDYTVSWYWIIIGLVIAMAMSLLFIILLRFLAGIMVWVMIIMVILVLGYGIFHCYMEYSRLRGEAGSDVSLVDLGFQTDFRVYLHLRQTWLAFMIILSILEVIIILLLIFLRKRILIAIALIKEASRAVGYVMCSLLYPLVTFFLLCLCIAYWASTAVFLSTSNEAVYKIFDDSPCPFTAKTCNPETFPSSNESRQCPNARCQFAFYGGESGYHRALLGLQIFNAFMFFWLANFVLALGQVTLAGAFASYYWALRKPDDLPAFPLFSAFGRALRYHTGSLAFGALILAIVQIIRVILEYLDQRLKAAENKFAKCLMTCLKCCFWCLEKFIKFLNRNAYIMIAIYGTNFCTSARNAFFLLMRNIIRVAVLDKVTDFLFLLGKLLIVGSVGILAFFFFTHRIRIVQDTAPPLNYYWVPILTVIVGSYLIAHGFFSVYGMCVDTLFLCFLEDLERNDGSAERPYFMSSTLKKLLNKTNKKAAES
Chain of SLC35G4 (P0C7Q5 whole entry): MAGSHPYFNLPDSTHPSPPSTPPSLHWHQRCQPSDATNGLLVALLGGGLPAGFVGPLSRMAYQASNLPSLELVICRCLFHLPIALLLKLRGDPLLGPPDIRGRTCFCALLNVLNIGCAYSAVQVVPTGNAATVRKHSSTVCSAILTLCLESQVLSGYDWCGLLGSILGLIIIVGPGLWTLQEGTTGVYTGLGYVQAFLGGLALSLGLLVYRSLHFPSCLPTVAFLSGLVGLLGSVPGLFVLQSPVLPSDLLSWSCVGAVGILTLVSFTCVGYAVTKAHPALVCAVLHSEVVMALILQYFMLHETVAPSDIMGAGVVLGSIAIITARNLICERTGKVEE

SMILES: C[N+](C)(C)CCO [Choline]
- Clint (±SEM) [1]: 1.32 (±1.74) μl × mg protein^-1 × min^-1
- Uptake by SLC35F5 (in words) [2]: highest uptake rates
- Clint (±SEM) [3]: 0.17 (±0.36) μl × mg protein^-1 × min^-1
- Uptake by SLC35E1 (in words) [4]: significantly enhanced
- Uptake by SLC35G4 (in words) [5]: extensively enhanced the cell uptake
- Uptake by SLC44A1 (CTL1) (in words) [6]: moderate choline uptake
- Uptake by SLC44A2 (CTL2) (in words) [7]: moderate choline uptake
- Clint (±SEM) [8]: 0.95 (±0.57) μl × mg protein^-1 × min^-1
